Measurements reported in patent US20070232658A1, “Protein Kinase C Inhibitors for the Treatment of Autoimmune Diseases and of Transplant Rejiction” (priority 2004, published 2007).
Where “and” joins values, the source holds several entries; their conditions need not be identical. Equal values may be shown once.

What was measured:
[1] = system: Balb/c spleen cells stimulated by irradiated or mitomycin C treated CBA spleen cells; experiment: Murine mixed lymphocyte reaction (MLR); assay type: cell-based; conditions: Mus musculus, 120 h, 5 days co-incubation, labeled precursor incorporation into DNA, read-out: IC50 (concentration resulting in 50% inhibition of cell proliferation)
Method: Spleen cells (0.5×10^6) from Balb/c mice (female, 8-10 weeks) are co-incubated for 5 days with 0.5×10^6 irradiated (2000 rads) or mitomycin C treated spleen cells from CBA mice (female, 8-10 weeks). The irradiated allogeneic cells induce a proliferative response in the Balb/c spleen cells which can be measured by labeled precursor incorporation into the DNA. […] The antiproliferative effect of the compounds on the Balb/c cells is measured at various dilutions and the concentration resulting in 50% inhibition of cell proliferation (IC50) is calculated.

[2] = system: heart allograft rejection; experiment: Rat heart transplantation; assay type: in vivo; conditions: rat heart transplant, Lewis/DA, 30 mg/kg bid
Method: The strain combination used: Male Lewis (RT^1 haplotype) and DA (RT^1 haplotype). The animals are anaesthetised using inhalational isofluorane. […] The aorta is ligated and divided distal to the first branch and the brachiocephalic trunk is divided at the first bifurcation. The left pulmonary artery is ligated and divided and the right side divided but left open. All other vessels are dissected free, ligated and divided and the donor heart is removed into iced saline.
The recipient is prepared by dissection and cross-clamping of the infra-renal abdominal aorta and vena cava. The graft is implanted with end-to-side anastomoses, using 10/0 monofilament suture, between the donor brachiocephalic trunk and the recipient aorta and the donor right pulmonary artery to the recipient vena cava. The clamps are removed, the graft tethered retroabdominally, the abdominal contents washed with warm saline and the animal is closed and allowed to recover under a heating lamp. Graft survival is monitored by daily palpation of the beating donor heart through the abdominal wall. Rejection is considered to be complete when heart beat stops. Increases of graft survival are obtained in animals treated with a compound of formula I, II, III or IV or a pharmaceutically acceptable salt or solvate thereof administered orally at a daily dose of 10 to 30 mg/kg bid. […]

Cn1cc(C2=C(c3cn(C4CCNCC4)c4ccccc34)C(=O)NC2=O)c2ccccc21 [Compound B, 3-(1-methyl-1H-indol-3-yl)-4-[1-(piperidin-4-yl)-1H-indol-3-yl]-pyrrole-2,5-dione]
IC50 [1]: 195 nM

Cn1cc(C2=C(c3cn(C4CCN(Cc5ccccn5)CC4)c4ccccc34)C(=O)NC2=O)c2ccccc21 [Compound A, 3-(1-methyl-1H-indol-3-yl)-4-[1-{(1-pyridin-2-ylmethyl)-piperidin-4-yl}-1H-indol-3-yl]-pyrrole-2,5-dione]
prolongation of graft survival [2]: 14 days and 25 days and 26 days
